Results on 20 compounds are retold here after PubChem BioAssay (NCI).

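These data come from cells grown in 96-well plates and exposed to compound for 48 hours at five concentrations. GI50 marks 50% less growth. TGI marks complete inhibition of growth.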

The test system of the first test is OVCAR-3 ovarian. The experiment in a line: NCI anticancer screen, dose series, 48 h.
`CC(C)c1cc(-c2n[nH]c(=O)n2-c2ccc3c(ccn3C)c2)c(O)cc1O`: the GI50 is < 0.0237 µM and the TGI amounted to 19.4 µM.
`Cc1cc(N(CCCl)CCCl)ccc1C=Nc1ccc(-c2csc(Cc3ccccc3)n2)cc1`: the GI50 is 9.17 µM and the TGI was determined as 27 µM.
Turning to `NCCOCCOCCNc1nc(Cc2ccccc2)nc(NCCCN2CCCC2=O)n1`, the GI50 is > 100 µM and the TGI was > 100 µM.
For `COc1ccc(-c2c3c(N)nc(-c4ccncc4)nc3nc3c2c(C)nn3-c2ccccc2)cc1`, the GI50 is 3.89 µM and the TGI was 16 µM.
As to `COc1ccc(-c2nc3sc4c(c3c(=O)[nH]2)CCCCCC4)cc1`, the GI50 was 1.91 µM and the TGI was > 33.2 µM.
Taken in the same sequence, the figures for `CC1(C)CC(=O)c2c(C(F)(F)F)nn(-c3ccc(C(N)=O)c(NC4CCC(OC(=O)CN)CC4)c3)c2C1` (stereo unspecified) were 0.159 µM and > 100 µM.
Regarding `CC1=C(C)C(=O)c2c(cc3ccccn23)C1=O`, the TGI was 29.2 µM.
In the case of `Cc1ccccc1[P+](Cc1ccccc1)(c1ccccc1)c1ccccc1`, the GI50 was 1.42 µM and the TGI was > 100 µM.
As to `CC1SC2=NC3=C(c4ccccc4C3=O)C(c3ccc(F)cc3)N2C1=O` (stereo unspecified), the TGI was > 100 µM.
As to `CCCCCCCCN=C(N)c1ccc(N2CCN(c3ccc(C(N)=NCCCCCCCC)cc3)CC2)cc1`, the GI50 was 0.931 µM and the TGI was determined as 3.2 µM.
As for `NNC(=O)/C(=C/c1ccc(Cl)cc1Cl)NC(=O)c1ccccc1`, the TGI was > 100 µM.
Regarding `CC1C=C(OC(=O)c2ccccc2)C(=O)C(n2cc(F)c(=O)[nH]c2=O)O1` (stereo unspecified), the TGI is > 100 µM.
The same measure, in the same setting: next, `COc1cc(OC(C)=O)cc2c(OC(C)=O)ccc(OC(C)=O)c12`: > 100 µM; `CCc1ccccc1NC(=O)C(=O)CC(=O)c1sc(Nc2ccccc2)nc1C`: > 100 µM.
On to `O=c1cc(-c2ccccc2)[nH]c2ccccc12`, for which the GI50 is 0.342 µM.
Turning to `CCN(CC)c1ccc(C(=O)c2ccccc2C(=O)O)c(O)c1`, the TGI was > 100 µM.
Turning to `COc1cc2c(c(OC)c1)C1c3ccccc3NC(=O)N1CC2` (stereo unspecified), the GI50 is 3.27 µM and the TGI is > 100 µM.
Turning to `Cc1ccc(NC(=O)C(=O)C(C#N)c2ccccc2C)cc1C` (stereo unspecified), the TGI is > 100 µM.

The subject of a further test is MDA-MB-435. As to the kind of experiment: NCI anticancer screen, dose series, 48 h.
In the case of `COc1ccc(/C=C2\CCCC3=C2N=C2SC(C)=NN2C3c2ccc(OC)c(OC)c2)cc1OC` (stereo unspecified), the GI50 was 3.27 µM and the TGI came to 69.3 µM.
Regarding `CC(C)c1cc(-c2n[nH]c(=O)n2-c2ccc3c(ccn3C)c2)c(O)cc1O`, the GI50 is < 0.0191 µM and the TGI was 15.6 µM.
For `Cc1cc(N(CCCl)CCCl)ccc1C=Nc1ccc(-c2csc(Cc3ccccc3)n2)cc1`, in that order: 12.4 µM and 39.9 µM.
For `NCCOCCOCCNc1nc(Cc2ccccc2)nc(NCCCN2CCCC2=O)n1`, in that order: > 100 µM and > 100 µM.
On to `COc1ccc(-c2c3c(N)nc(-c4ccncc4)nc3nc3c2c(C)nn3-c2ccccc2)cc1`, for which the GI50 is 5.29 µM and the TGI is > 100 µM.
For `COc1ccc(-c2nc3sc4c(c3c(=O)[nH]2)CCCCCC4)cc1`, the GI50 is 0.107 µM and the TGI was 0.838 µM.
Taken in the same sequence, the figures for `CC1(C)CC(=O)c2c(C(F)(F)F)nn(-c3ccc(C(N)=O)c(NC4CCC(OC(=O)CN)CC4)c3)c2C1` (stereo unspecified) were 0.0418 µM and > 47.3 µM.
Taken in the same sequence, the figures for `Cc1ccccc1[P+](Cc1ccccc1)(c1ccccc1)c1ccccc1` were 0.601 µM and 3.71 µM.
As for `CCCCCCCCN=C(N)c1ccc(N2CCN(c3ccc(C(N)=NCCCCCCCC)cc3)CC2)cc1`, the GI50 was 1.25 µM and the TGI stood at 3.23 µM.
Take `CC(CCC(=O)O)[C@H]1CCC2[C@@H]3CC[C@@H]4CC(O)CC[C@]4(C)C3CC[C@@]21C` (stereo partly specified): the GI50 was 37.5 µM and the TGI is > 100 µM.

In a further test the test system is UO-31 renal. As to the kind of experiment: NCI anticancer screen, dose series, 48 h.
Regarding `COc1ccc(/C=C2\CCCC3=C2N=C2SC(C)=NN2C3c2ccc(OC)c(OC)c2)cc1OC` (stereo unspecified), the GI50 was 5.99 µM and the TGI was found to be 43.9 µM.
Taken in the same sequence, the figures for `CC(C)c1cc(-c2n[nH]c(=O)n2-c2ccc3c(ccn3C)c2)c(O)cc1O` were < 0.0218 µM and > 65.2 µM.
Taken in the same sequence, the figures for `Cc1cc(N(CCCl)CCCl)ccc1C=Nc1ccc(-c2csc(Cc3ccccc3)n2)cc1` were 2.61 µM and 26.8 µM.
Taken in the same sequence, the figures for `NCCOCCOCCNc1nc(Cc2ccccc2)nc(NCCCN2CCCC2=O)n1` were > 100 µM and > 100 µM.
With `COc1ccc(-c2c3c(N)nc(-c4ccncc4)nc3nc3c2c(C)nn3-c2ccccc2)cc1`, the GI50 is 50.7 µM and the TGI is > 100 µM.
For `COc1ccc(-c2nc3sc4c(c3c(=O)[nH]2)CCCCCC4)cc1`, in that order: > 33.2 µM and > 33.2 µM.
Consider `CC1(C)CC(=O)c2c(C(F)(F)F)nn(-c3ccc(C(N)=O)c(NC4CCC(OC(=O)CN)CC4)c3)c2C1` (stereo unspecified), for which the GI50 was 0.418 µM and the TGI was > 27.1 µM.
The compound `CC1=C(C)C(=O)c2c(cc3ccccn23)C1=O` had a TGI of 65.1 µM.
Take `Cc1ccccc1[P+](Cc1ccccc1)(c1ccccc1)c1ccccc1`: the GI50 is 14.2 µM and the TGI is 69.2 µM.
`CC1SC2=NC3=C(c4ccccc4C3=O)C(c3ccc(F)cc3)N2C1=O` (stereo unspecified): the TGI is > 100 µM.
As to `CCCCCCCCN=C(N)c1ccc(N2CCN(c3ccc(C(N)=NCCCCCCCC)cc3)CC2)cc1`, the GI50 was 4.22 µM and the TGI is > 50 µM.
In the case of `NNC(=O)/C(=C/c1ccc(Cl)cc1Cl)NC(=O)c1ccccc1`, the TGI was > 100 µM.
Same read-out and setting: to `CC1C=C(OC(=O)c2ccccc2)C(=O)C(n2cc(F)c(=O)[nH]c2=O)O1` (stereo unspecified) belongs > 100 µM; to `COc1cc(OC(C)=O)cc2c(OC(C)=O)ccc(OC(C)=O)c12`, > 100 µM.
Still for that read-out and setting: to `CCc1ccccc1NC(=O)C(=O)CC(=O)c1sc(Nc2ccccc2)nc1C` belongs > 100 µM.
Take `O=c1cc(-c2ccccc2)[nH]c2ccccc12`: the GI50 was 3.28 µM and the TGI is > 100 µM.
For the compound `CCN(CC)c1ccc(C(=O)c2ccccc2C(=O)O)c(O)c1`, the TGI was > 100 µM.
For `COc1cc2c(c(OC)c1)C1c3ccccc3NC(=O)N1CC2` (stereo unspecified), the GI50 was 2.81 µM and the TGI amounted to 85.4 µM.
Take `CC(CCC(=O)O)[C@H]1CCC2[C@@H]3CC[C@@H]4CC(O)CC[C@]4(C)C3CC[C@@]21C` (stereo partly specified): the GI50 is 22.1 µM and the TGI is 67.3 µM.
Regarding `Cc1ccc(NC(=O)C(=O)C(C#N)c2ccccc2C)cc1C` (stereo unspecified), the TGI is > 100 µM.

A further test has as its system CCRF-CEM leukemia. As to the kind of experiment: NCI anticancer screen, dose series, 48 h.
For `COc1ccc(/C=C2\CCCC3=C2N=C2SC(C)=NN2C3c2ccc(OC)c(OC)c2)cc1OC` (stereo unspecified), the GI50 was 2.91 µM and the TGI was > 100 µM.
On to `CC(C)c1cc(-c2n[nH]c(=O)n2-c2ccc3c(ccn3C)c2)c(O)cc1O`, for which the GI50 is < 0.0174 µM and the TGI is > 40.5 µM.
Regarding `Cc1cc(N(CCCl)CCCl)ccc1C=Nc1ccc(-c2csc(Cc3ccccc3)n2)cc1`, the GI50 was 3.01 µM and the TGI was > 86.3 µM.
Taken in the same sequence, the figures for `NCCOCCOCCNc1nc(Cc2ccccc2)nc(NCCCN2CCCC2=O)n1` were > 100 µM and > 100 µM.
Taken in the same sequence, the figures for `COc1ccc(-c2c3c(N)nc(-c4ccncc4)nc3nc3c2c(C)nn3-c2ccccc2)cc1` were 5.93 µM and > 100 µM.
In the case of `COc1ccc(-c2nc3sc4c(c3c(=O)[nH]2)CCCCCC4)cc1`, the GI50 was > 33.2 µM and the TGI was > 33.2 µM.
Consider `CC1(C)CC(=O)c2c(C(F)(F)F)nn(-c3ccc(C(N)=O)c(NC4CCC(OC(=O)CN)CC4)c3)c2C1` (stereo unspecified), for which the GI50 is 0.0339 µM and the TGI is > 100 µM.
For `CC1=C(C)C(=O)c2c(cc3ccccn23)C1=O`, the TGI was > 100 µM.
With `Cc1ccccc1[P+](Cc1ccccc1)(c1ccccc1)c1ccccc1`, the GI50 is 2.1 µM and the TGI came to 33.5 µM.
For `CC1SC2=NC3=C(c4ccccc4C3=O)C(c3ccc(F)cc3)N2C1=O` (stereo unspecified), the TGI was > 100 µM.
The same measure, in the same setting: next, `NNC(=O)/C(=C/c1ccc(Cl)cc1Cl)NC(=O)c1ccccc1`: > 100 µM; `CC1C=C(OC(=O)c2ccccc2)C(=O)C(n2cc(F)c(=O)[nH]c2=O)O1` (stereo unspecified): > 100 µM; `COc1cc(OC(C)=O)cc2c(OC(C)=O)ccc(OC(C)=O)c12`: > 100 µM.
In the case of `CCc1ccccc1NC(=O)C(=O)CC(=O)c1sc(Nc2ccccc2)nc1C`, the TGI is > 100 µM.
`O=c1cc(-c2ccccc2)[nH]c2ccccc12`: the GI50 is 0.738 µM and the TGI is > 100 µM.
`CCN(CC)c1ccc(C(=O)c2ccccc2C(=O)O)c(O)c1`: the TGI was > 100 µM.
In the case of `COc1cc2c(c(OC)c1)C1c3ccccc3NC(=O)N1CC2` (stereo unspecified), the GI50 is 2.67 µM and the TGI was > 100 µM.
For the compound `CC(CCC(=O)O)[C@H]1CCC2[C@@H]3CC[C@@H]4CC(O)CC[C@]4(C)C3CC[C@@]21C` (stereo partly specified), the GI50 was 21.9 µM and the TGI amounted to 85.3 µM.
`Cc1ccc(NC(=O)C(=O)C(C#N)c2ccccc2C)cc1C` (stereo unspecified): the TGI is > 100 µM.

A further test deals with HL-60(TB) leukemia. As to the kind of experiment: NCI anticancer screen, dose series, 48 h.
As to `COc1ccc(/C=C2\CCCC3=C2N=C2SC(C)=NN2C3c2ccc(OC)c(OC)c2)cc1OC` (stereo unspecified), the GI50 was 3.97 µM and the TGI stood at 36 µM.
For `CC(C)c1cc(-c2n[nH]c(=O)n2-c2ccc3c(ccn3C)c2)c(O)cc1O`, in that order: < 0.01 µM and 21.8 µM.
For the compound `Cc1cc(N(CCCl)CCCl)ccc1C=Nc1ccc(-c2csc(Cc3ccccc3)n2)cc1`, the GI50 was 1.85 µM and the TGI was > 46 µM.
For `NCCOCCOCCNc1nc(Cc2ccccc2)nc(NCCCN2CCCC2=O)n1`, in that order: > 100 µM and > 100 µM.
For `COc1ccc(-c2c3c(N)nc(-c4ccncc4)nc3nc3c2c(C)nn3-c2ccccc2)cc1`, in that order: > 100 µM and > 100 µM.
For `COc1ccc(-c2nc3sc4c(c3c(=O)[nH]2)CCCCCC4)cc1`, in that order: 0.874 µM and > 33.2 µM.
Turning to `CC1(C)CC(=O)c2c(C(F)(F)F)nn(-c3ccc(C(N)=O)c(NC4CCC(OC(=O)CN)CC4)c3)c2C1` (stereo unspecified), the GI50 is 0.0398 µM and the TGI was 13.2 µM.
As to `CC1=C(C)C(=O)c2c(cc3ccccn23)C1=O`, the TGI came out at 43.2 µM.
Take `Cc1ccccc1[P+](Cc1ccccc1)(c1ccccc1)c1ccccc1`: the GI50 was 1.23 µM and the TGI was found to be 4.04 µM.
With `CC1SC2=NC3=C(c4ccccc4C3=O)C(c3ccc(F)cc3)N2C1=O` (stereo unspecified), the TGI is > 100 µM.
As for `CCCCCCCCN=C(N)c1ccc(N2CCN(c3ccc(C(N)=NCCCCCCCC)cc3)CC2)cc1`, the GI50 was 1.17 µM and the TGI came to 4.66 µM.
As to `NNC(=O)/C(=C/c1ccc(Cl)cc1Cl)NC(=O)c1ccccc1`, the TGI was > 100 µM.
Turning to `CC1C=C(OC(=O)c2ccccc2)C(=O)C(n2cc(F)c(=O)[nH]c2=O)O1` (stereo unspecified), the TGI is > 100 µM.
Same read-out and setting: to `COc1cc(OC(C)=O)cc2c(OC(C)=O)ccc(OC(C)=O)c12` belongs > 100 µM.
The same measure, in the same setting: next, `CCc1ccccc1NC(=O)C(=O)CC(=O)c1sc(Nc2ccccc2)nc1C`: > 100 µM.
Regarding `O=c1cc(-c2ccccc2)[nH]c2ccccc12`, the GI50 is 0.52 µM and the TGI is > 100 µM.
`CCN(CC)c1ccc(C(=O)c2ccccc2C(=O)O)c(O)c1`: the TGI was > 100 µM.
Consider `COc1cc2c(c(OC)c1)C1c3ccccc3NC(=O)N1CC2` (stereo unspecified), for which the GI50 is 2.12 µM and the TGI was determined as 5.56 µM.
Taken in the same sequence, the figures for `CC(CCC(=O)O)[C@H]1CCC2[C@@H]3CC[C@@H]4CC(O)CC[C@]4(C)C3CC[C@@]21C` (stereo partly specified) were 52.3 µM and > 100 µM.
Turning to `Cc1ccc(NC(=O)C(=O)C(C#N)c2ccccc2C)cc1C` (stereo unspecified), the TGI is > 85.8 µM.
